These results are taken from patent US20190225650A1, “PEPTIDOMIMETIC MACROCYCLES AND USE THEREOF IN REGULATING HIF1ALPHA” (AILERON THERAPEUTICS, INC., priority 2013, published 2019).

For experiment [1], the target named is T1, flag-tagged HIF1α (AA 786-826) / His6-tagged p300 (AA 323-423) complex (Homo sapiens, UniProt Q09472).
T1 construct: His6-tagged p300 (AA 323-423); made in house; host or cells: E. coli (pETDuet vector)
The experiment can be described thus: HIF1α p300 displacement assay (TR FRET, +CHAPS). The note with it: read-out: IC50 (nM) (HIF1α_p300 Displacement + CHAPS). In kind it is binding. The essentials:
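In this TR-FRET displacement format, peptides compete HIF1α C-terminal transactivation domain off p300-CH. They were preincubated 1 h at room temperature with 300 nM complex in HEPES pH 7.4/NaCl buffer with 7.5 mM CHAPS and 1 mM DTT. Anti-His-D2 (4 nM) and anti-Flag-K (0.5 μM) followed for 2 h, and a one-site fit of the fluorescence ratio gave IC50.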
On the technique in general: TR-FRET usually uses a lanthanide donor and a delayed reading to cut background.

Experiment [2] has as its system HRE-bla ME-180 cells. Briefly: Reporter gene assay (HRE-bla ME-180 HIF reporter, GeneBLAzer). The format is cell-based, human. The note with it: for EC50: 24 hour normoxia. The method in brief:
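A FRET β-lactamase readout of HIF transcription was used. After compound treatment in 0.3% DMSO/media under normoxic conditions, 20 μl of 6× LiveBLAzer-FRET B/G (CCF4-AM) substrate was added. Plates sat 3 hr at room temperature in the dark and were read at 409 Ex/460Em and 409Ex/530Em on a Synergy 2. Inhibition was compared against DMSO vehicle controls, with chetomin as positive control.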
In general terms: Reporter assays use an easily measured gene product as a stand-in for the process of interest.

Experiment [3] has as its system HRE-bla ME-180 cells. The experiment can be described thus: Cell proliferation assay (viability, MTT, 1% FBS). The format is cell-based, human. The essentials: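 Viable cell number was measured with the CellTiter 96 (MTT) kit after compounds were applied for a 16 h normoxic (21% O2) pretreatment, followed by further normoxic or hypoxic (1% O2) culture. Cells: 2×10^4 ME-180 per well, Opti-MEM + 1% FBS, 0.5% DMSO vehicle.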

The structures appear in SMILES notation. Bridge positions count the residues as written; N and C are the ends. Square brackets hold non-standard residues; d marks the D form. Peptide text beside a SMILES is read from it. R8 = C=CCCCCCC[C@@](C)(N)C(=O)O; S5 = C=CCCC[C@](C)(N)C(=O)O; Nle = CCCC[C@H](N)C(=O)O

As a reminder, the IC50 is the concentration at which inhibition is half-maximal. One may read the EC50 as the concentration at which the effect is half-maximal. As to `CCCC[C@H](NC(=O)[C@]1(C)CCCC=CCCC[C@](C)(NC(=O)[C@H](CCCC)NC(=O)[C@H](CC(C)C)NC(=O)[C@@H](NC(=O)[C@H](CCC(=O)O)NC(=O)[C@H](CCC(=O)O)NC(=O)[C@H](CC(=O)O)NC(=O)[C@@H](NC(=O)[C@H](CC(N)=O)NC(=O)[C@@H](NC(=O)[C@H](CCC(N)=O)NC(=O)[C@H](CC(=O)O)NC(=O)[C@H](CC(C)C)NC(=O)[C@H](C)NC(=O)[C@H](CCCNC(=N)N)NC(=O)[C@H](CC(C)C)NC(=O)[C@H](CC(C)C)NC(=O)[C@H](CCC(=O)O)NC(=O)[C@H](CCC(=O)O)NC(=O)CNC(=O)[C@H](CCC(N)=O)NC(=O)[C@H](CC(C)C)NC(=O)[C@H](CC(C)C)NC(C)=O)C(C)C)[C@@H](C)CC)C(C)C)C(=O)N[C@@H](CC(C)C)C(=O)N[C@@H](C(C)C)C(=O)N[C@@H]([C@@H](C)CC)C(=O)N1)C(N)=O` [SP-335] (Ac-LLQGEELLRALDQVNIDEEVL[Nle][S5]LVI[S5][Nle]-NH2; staple 23-27), the IC50 in experiment [1] lay in the range of 400 to 700 nM. For the same compound, in the experiment on HRE-bla ME-180 cells [2], the “18 h Avg % max inhibition at top conc (HIF Rptr-24 hrs normoxia) (μM)” value (from here on “18 h Avg % max inhibition at top conc”) is “+ (<10: +)” and the EC50 is > 30 µM. The “Viability 1% FBS AVG (MTT V3-24 hr Normoxia) (μM)” value (from here on “Viability 1% FBS AVG”) with HRE-bla ME-180 cells [3] is “++++ (≥30: ++++)”.

As to `CCCC[C@H](NC(=O)[C@H](CCC(=O)O)NC(=O)[C@@H](NC(=O)[C@@H](NC(=O)[C@H](CC(C)C)NC(=O)[C@]1(C)CCCC=CCCC[C@](C)(NC(=O)[C@H](CCC(=O)O)NC(=O)[C@H](CC(=O)O)NC(=O)[C@@H](NC(=O)[C@H](Cc2ccccc2)NC(=O)[C@H](CCCCN)NC(C)=O)[C@@H](C)CC)C(=O)N[C@@H](C(C)C)C(=O)N[C@@H](CC(C)C)C(=O)N[C@@H](CCCC)C(=O)N1)C(C)C)[C@@H](C)CC)C(=O)N[C@@H](C)C(=O)N[C@@H](CC(C)C)C(N)=O` [SP-134] (Ac-KFIDE[S5]VL[Nle][S5]LVIE[Nle]AL-NH2; staple 6-10), in experiment [1], the IC50 lay in the range of 200 to 400 nM. Further, in the experiment on HRE-bla ME-180 cells [2], the “18 h Avg % max inhibition at top conc” value was “+++ (≤25 but <50: +++)” and the EC50 was > 30 µM. Also, in the experiment on HRE-bla ME-180 cells [3], the “Viability 1% FBS AVG” value is “++++ (≥30: ++++)”.

Turning to `CC[C@H](C)[C@H](NC(=O)[C@H](CCCNC(=N)N)NC(=O)[C@H](CC(=O)O)NC(=O)[C@H](CC(C)C)NC(=O)[C@H](C)NC(=O)[C@H](CCSC)NC(=O)[C@]1(C)CCCC=CCCC[C@](C)(NC(=O)[C@H](CCSC)NC(=O)[C@H](CC(C)C)NC(=O)[C@@H](NC(=O)[C@H](CCCCN)NC(=O)[C@H](CCC(=O)O)NC(=O)[C@H](CC(N)=O)NC(=O)[C@@H](NC(=O)[C@H](Cc2ccccc2)NC(C)=O)[C@@H](C)CC)C(C)C)C(=O)N[C@@H](CC(C)C)C(=O)N[C@@H](C(C)C)C(=O)N[C@@H]([C@@H](C)CC)C(=O)N1)C(N)=O` [SP-285] (Ac-FINEKVLM[S5]LVI[S5]MALDRI-NH2; staple 9-13), in experiment [1], the IC50 is > 700 nM. In the experiment on HRE-bla ME-180 cells [2], the “18 h Avg % max inhibition at top conc” value is “+++ (≤25 but <50: +++)” and the EC50 was > 30 µM. The “Viability 1% FBS AVG” value in the experiment with HRE-bla ME-180 cells [3] was “++++ (≥30: ++++)”.

For the compound `CCCC[C@H](NC(=O)[C@H](CCC(=O)O)NC(=O)[C@]1(C)CCCC=CCCCCCC[C@@](C)(NC(=O)[C@H](CCC(=O)O)NC(=O)[C@H](CC(=O)O)NC(=O)[C@@H](NC(=O)[C@H](CC(N)=O)NC(=O)[C@@H](NC(=O)[C@]2(C)CCCC=CCCCCCC[C@@](C)(NC(=O)[C@H](CCC(=O)O)NC(=O)CNC(=O)[C@H](CCC(N)=O)NC(=O)[C@H](CC(C)C)NC(=O)[C@H](CC(C)C)NC(C)=O)C(=O)N[C@@H](CC(C)C)C(=O)N[C@@H](CC(C)C)C(=O)N[C@@H](CCCNC(=N)N)C(=O)N[C@@H](C)C(=O)N[C@@H](CC(C)C)C(=O)N[C@@H](CC(=O)O)C(=O)N2)C(C)C)[C@@H](C)CC)C(=O)N[C@@H](C(C)C)C(=O)N[C@@H](CC(C)C)C(=O)N[C@@H](CCCC)C(=O)N[C@@H](CO)C(=O)N[C@@H](CC(C)C)C(=O)N[C@@H](C(C)C)C(=O)N1)C(=O)NCC(N)=O` [SP-313] (Ac-LLQGE[R8]LLRALD[S5]VNIDE[R8]VL[Nle]SLV[S5]E[Nle]G-NH2; staple 6-13, 19-26), the IC50 in experiment [1] is 200 to 400 nM. Also, in the experiment with HRE-bla ME-180 cells [2], the “18 h Avg % max inhibition at top conc” value was “+ (<10: +)” and the EC50 is > 30 µM. Also, in the experiment on HRE-bla ME-180 cells [3], the “Viability 1% FBS AVG” value is listed as “++++ (≥30: ++++)”.

As to `CCCC[C@@H]1NC(=O)[C@H](CC(C)C)NC(=O)[C@H]([C@@H](C)O)NC(=O)[C@@](C)(NC(=O)[C@H](CCC(=O)O)NC(=O)[C@H](CC(=O)O)NC(=O)[C@@H](NC(=O)[C@H](Cc2ccccc2)NC(C)=O)[C@@H](C)CC)CCCC=CCCCC2(CCCC=CCCC[C@](C)(C(=O)N[C@@H](CCCC)C(=O)N[C@@H](C)C(=O)N[C@@H](CC(C)C)C(N)=O)NC(=O)[C@H]([C@@H](C)CC)NC(=O)[C@H](C(C)C)NC(=O)[C@H](CC(C)C)NC2=O)NC1=O` (stereo partly shown) [SP-207], in experiment [1], the IC50 was ≤ 200 nM. Also, in the experiment with HRE-bla ME-180 cells [2], the “18 h Avg % max inhibition at top conc” value was “+ (<10: +)” and the EC50 was > 30 µM. Further, the “Viability 1% FBS AVG” value in the experiment with HRE-bla ME-180 cells [3] is listed as “++++ (≥30: ++++)”.

Regarding `CCCC[C@@H]1NC(=O)[C@H](CC(C)C)NC(=O)[C@](C)(NC(=O)[C@H](CCC(=O)O)NC(=O)[C@H](CCC(=O)O)NC(=O)[C@H](CC(=O)O)NC(=O)[C@@H](NC(=O)[C@H](CC(N)=O)NC(=O)[C@@H](NC(=O)[C@H](CCC(N)=O)NC(=O)[C@H](CC(=O)O)NC(=O)[C@H](CC(C)C)NC(=O)[C@]2(C)CCCC=CCCC[C@](C)(NC(=O)[C@H](CCC(=O)O)NC(=O)CNC(=O)[C@H](CCC(N)=O)NC(=O)[C@H](CC(C)C)NC(=O)[C@H](CC(C)C)NC(C)=O)C(=O)N[C@@H](CC(C)C)C(=O)N[C@@H](CC(C)C)C(=O)N[C@@H](CCCNC(=N)N)C(=O)N2)C(C)C)[C@@H](C)CC)CCCCCCC=CCCC[C@@](C)(C(=O)N[C@@H](CCCC)C(=O)NCC(N)=O)NC(=O)[C@H]([C@@H](C)CC)NC(=O)[C@H](C(C)C)NC(=O)[C@H](CC(C)C)NC(=O)[C@H](CO)NC1=O` [SP-330] (Ac-LLQGE[S5]LLR[S5]LDQVNIDEE[R8]L[Nle]SLVI[S5][Nle]G-NH2; staple 6-10, 20-27), the IC50 in experiment [1] was > 700 nM. Moreover, in the experiment with HRE-bla ME-180 cells [2], the “18 h Avg % max inhibition at top conc” value was “+ (<10: +)” and the EC50 is > 30 µM. Further, the “Viability 1% FBS AVG” value with HRE-bla ME-180 cells [3] is reported as “++++ (≥30: ++++)”.

With `CCCC[C@H](NC(=O)[C@H](Cc1ccccc1)NC(=O)[C@@H](NC(=O)[C@H](CCC(=O)O)NC(=O)[C@H](CCC(=O)O)NC(=O)[C@H](CC(=O)O)NC(=O)[C@@H](NC(C)=O)[C@@H](C)CC)C(C)C)C(=O)N[C@@]1(C)CCCC=CCCC[C@@](C)(C(=O)N[C@@H](CCCC)C(=O)N[C@@H](C)C(=O)N[C@@H](CC(C)C)C(=O)N[C@@H](CC(C)C)C(N)=O)NC(=O)[C@H]([C@@H](C)CC)NC(=O)[C@H](C(C)C)NC(=O)[C@H](CC(C)C)NC1=O` [SP-243] (Ac-IDEEVF[Nle][S5]LVI[S5][Nle]ALL-NH2; staple 8-12), in experiment [1], the 50% inhibitory concentration (IC50) was 400 to 700 nM. Besides, in the experiment on HRE-bla ME-180 cells [2], the “18 h Avg % max inhibition at top conc” value was “++++ (≥50: ++++)” and the EC50 lay in the range of 15 to 30 µM. Moreover, in the experiment with HRE-bla ME-180 cells [3], the “Viability 1% FBS AVG” value is reported as “++++ (≥30: ++++)”.
